One test addresses wildtype STAT3 protein (Homo sapiens, UniProt P40763). The experiment in a line: Fluorescence polarization competitive binding, STAT3. As to conditions: FP; converted from IC50 with Equation 1. How it is done: Binding of compounds of the disclosure to the STAT5b SH2 domain was assessed using fluorescence polarization assays similar to those previously reported.^15 Analogous assays were also performed with STAT3 protein to determine the specificity of the compounds (13a-d). Fluorescence assays were performed in flat black 384-well plates (Corning) and fluorescence polarization measurements were taken with the Infinite M1000 machine (Tecan, Crailsheim, Germany). The buffer conditions for all assays were 20 mM HEPES, 50 mM NaCl, 1 mM EDTA, 2 mM dithiothreitol, pH 7.5 and the final DMSO concentration in the wells was kept constant at 10%.
Calibration curves for the wildtype STAT3 and STAT5b proteins were derived by incubating a 10 nM final concentration of fluoresceinated-phosphopeptide (5-FAM-pYLPQTC (SEQ ID NO:1) and 5-FAM-GpYLVLDKW (SEQ ID NO:2) for STAT3 and STAT5B, respectively), which are known to bind the SH2 domains, with increasing concentrations of protein (as shown in FIG. 3). The point at which 80% of the fluoresceinated-phosphopeptide was bound was used as the optimal protein concentration required for the competitive fluorescent polarization assays.
For the STAT5b fluorescence polarization assays, the 5-FAM-GpYLVLDKW (SEQ ID NO:2) peptide and STAT5b protein were first incubated for 30 minutes at room temperature. Compounds were titrated at concentrations ranging from 1->60,000 nM and incubated for a further 15 minutes at which point fluorescence polarization measurements were taken in triplicate. The final well concentrations of the fluoresceinated-phosphopeptide and STAT5B were 10 nM and 250 nM, respectively. The same protocol was used for the analogous STAT3 FP assays, except that the 5-FAM-pYLPQTC (SEQ ID NO:1) peptide was used as a probe and the final STAT3 concentration was 150 nM in each well.
The resulting fluorescence polarization measurements were normalized and plotted against compound concentration on a logarithmic scale. The raw data was fitted with a standard dose-normalized response inhibition curve using GraphPad Prism 6 software. The IC50 values were converted to Ki values using Equation 1, which corrects for protein concentration and is a more accurate determination of inhibitory constants in a fluorescence polarization assay than the Cheng-Pruskoff equation.^15 All inhibitory constants and calculated Ki values are summarized in Table 1.
(§1) Modified Cheng-Pruskoff equation containing a correction factor for protein concentration.
On the technique in general: In fluorescence polarisation assays a small probe gives low polarisation when free and higher when bound to something large.

Test [1] concerns the target T1, wildtype STAT5B protein (SH2 domain) (Homo sapiens, UniProt P51692).
T1 sequence (P51692 1-787): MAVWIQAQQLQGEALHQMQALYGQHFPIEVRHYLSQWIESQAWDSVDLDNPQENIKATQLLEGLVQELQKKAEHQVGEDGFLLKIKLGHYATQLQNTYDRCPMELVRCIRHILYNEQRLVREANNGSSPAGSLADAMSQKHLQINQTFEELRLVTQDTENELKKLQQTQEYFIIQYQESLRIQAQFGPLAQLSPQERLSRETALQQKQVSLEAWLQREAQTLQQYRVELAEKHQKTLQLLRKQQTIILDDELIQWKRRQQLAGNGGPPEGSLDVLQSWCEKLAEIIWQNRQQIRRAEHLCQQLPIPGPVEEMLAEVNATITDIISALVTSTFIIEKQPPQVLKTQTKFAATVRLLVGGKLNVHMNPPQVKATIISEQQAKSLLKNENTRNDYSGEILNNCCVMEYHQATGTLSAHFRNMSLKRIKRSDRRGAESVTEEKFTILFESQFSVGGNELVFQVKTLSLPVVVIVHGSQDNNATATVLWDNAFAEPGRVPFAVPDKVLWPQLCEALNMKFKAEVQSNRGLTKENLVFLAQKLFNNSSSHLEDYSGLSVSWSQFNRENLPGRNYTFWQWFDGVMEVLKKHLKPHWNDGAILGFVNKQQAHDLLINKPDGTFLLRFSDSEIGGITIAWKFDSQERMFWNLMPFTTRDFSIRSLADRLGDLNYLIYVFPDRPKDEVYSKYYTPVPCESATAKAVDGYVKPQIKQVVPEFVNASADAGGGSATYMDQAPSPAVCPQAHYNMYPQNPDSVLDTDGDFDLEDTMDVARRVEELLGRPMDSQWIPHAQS
The experiment in a line: Fluorescence polarization competitive binding, STAT5b. As to conditions: FP; for IC50: 5-FAM-GpYLVLDKW 10 nM, STAT5B 250 nM; for Ki: converted from IC50 with Equation 1. The protocol:
Fluorescence assays were performed in flat black 384-well plates (Corning) and fluorescence polarization measurements were taken with the Infinite M1000 machine (Tecan, Crailsheim, Germany). The buffer conditions for all assays were 20 mM HEPES, 50 mM NaCl, 1 mM EDTA, 2 mM dithiothreitol, pH 7.5 and the final DMSO concentration in the wells was kept constant at 10%.
The point at which 80% of the fluoresceinated-phosphopeptide was bound was used as the optimal protein concentration required for the competitive fluorescent polarization assays.
Compounds were titrated at concentrations ranging from 1->60,000 nM and incubated for a further 15 minutes at which point fluorescence polarization measurements were taken in triplicate. The final well concentrations of the fluoresceinated-phosphopeptide and STAT5B were 10 nM and 250 nM, respectively.
The resulting fluorescence polarization measurements were normalized and plotted against compound concentration on a logarithmic scale. The raw data was fitted with a standard dose-normalized response inhibition curve using GraphPad Prism 6 software.
as §1

Molecules are shown by their SMILES.

Chain of wildtype STAT3 protein (P40763 whole entry, species assumed, the tested form may be a part): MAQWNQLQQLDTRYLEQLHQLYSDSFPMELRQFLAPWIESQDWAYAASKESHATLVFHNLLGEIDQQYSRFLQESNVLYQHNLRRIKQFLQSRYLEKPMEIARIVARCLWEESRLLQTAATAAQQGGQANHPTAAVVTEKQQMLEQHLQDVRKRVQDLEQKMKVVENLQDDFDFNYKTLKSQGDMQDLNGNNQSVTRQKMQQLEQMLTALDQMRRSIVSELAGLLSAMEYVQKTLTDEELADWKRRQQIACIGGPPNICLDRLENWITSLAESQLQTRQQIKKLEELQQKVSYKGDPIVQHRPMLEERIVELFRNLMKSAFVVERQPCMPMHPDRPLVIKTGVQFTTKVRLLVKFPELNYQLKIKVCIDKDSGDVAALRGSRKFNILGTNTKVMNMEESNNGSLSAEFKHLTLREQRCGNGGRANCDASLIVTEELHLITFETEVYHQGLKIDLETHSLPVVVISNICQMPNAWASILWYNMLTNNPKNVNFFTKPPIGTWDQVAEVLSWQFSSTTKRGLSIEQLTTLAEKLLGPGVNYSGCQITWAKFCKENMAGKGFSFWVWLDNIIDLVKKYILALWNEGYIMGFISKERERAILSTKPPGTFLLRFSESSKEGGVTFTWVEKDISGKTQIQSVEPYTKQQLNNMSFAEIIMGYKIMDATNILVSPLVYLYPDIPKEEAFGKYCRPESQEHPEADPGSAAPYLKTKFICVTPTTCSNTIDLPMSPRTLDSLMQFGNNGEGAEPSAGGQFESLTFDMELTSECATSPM

The compound `Cc1cc(C)c(S(=O)(=O)N(CC(=O)N(Cc2ccc3ccccc3c2)c2ccc(C(=O)O)c(O)c2)Cc2ccc(Cl)cc2)c(C)c1` [Compound 13c, 4-(2-((N-(4-chlorobenzyl)-2,4,6-trimethylphenyl)sulfonamido)-N-(naphthalene-2-ylmethyl)acetamido)-2-hydroxybenzoic Acid] registered a Ki on wildtype STAT3 protein greater than 60 µM. Also, in test [1], the IC50 was 8.2 µM and the affinity, expressed as Ki, was 3240 nM.

Compound `O=C(O)c1ccc(N(Cc2ccc3ccccc3c2)C(=O)CN(Cc2ccc(Cl)cc2)S(=O)(=O)c2c(F)c(F)c(F)c(F)c2F)cc1O` [Compound 13d, 4-(2-((N-(4-chlorobenzyl)-2,3,4,5,6-pentafluorophenyl)sulfonamido)-N-(-naphthalene-2-ylmethyl)acetamido)-2-hydroxybenzoic Acid] showed an inhibitory constant (Ki) at wildtype STAT3 protein greater than 60 µM. In test [1], this compound returned an IC50 of 3.95 µM and an inhibitory constant (Ki) of 1560 nM.

`Cc1cc(C)c(S(=O)(=O)N(CC(=O)N(Cc2cc(C(C)(C)C)cc(C(C)(C)C)c2)c2ccc(C(=O)O)c(O)c2)Cc2ccc(Cl)cc2)c(C)c1` [Compound 13b, 4-(2-((N-(4-chlorobenzyl)-2,4,6-trimethylphenyl)sulfonamido)-N-(3,5-di-tert-butylbenzyl)acetamido)-2-hydroxybenzoic Acid] gave an inhibition constant Ki at wildtype STAT3 protein greater than 60 µM. In test [1], the 50% inhibitory concentration (IC50) is 6.53 µM and the inhibition constant Ki was 2570 nM.

In the case of `O=c1ccoc2ccccc12` [Chromone, reference compound], in test [1], the inhibitory constant (Ki) is greater than 60000 nM.

As a reminder, the Ki is a dissociation constant, usually derived from enzyme kinetics or from competition with a known ligand. Lower therefore signals a stronger hold on the target. Usually IC50 stands for the point on the concentration scale where inhibition reaches its midpoint. Read a high IC50 as weaker potency.

For the origin of these results see patent US10519107B2, “Sulfonamide compounds and their use as STAT5 inhibitors” (Governing Council of the University of Toronto, priority 2014, dated 2019).
